Data taken from article PMC12951562, “SH2scan: Mapping SH2 Domain-Ligand Binding Selectivity for Inhibitors and Degraders” (Journal of Medicinal Chemistry, 2026).
Like-named read-outs stand apart in the source and are kept apart here. Non-standard residues stand in square brackets, D forms with d. Residues, ends and D or L forms follow the SMILES beside them. *: point of attachment. pY = N[C@@H](Cc1ccc(OP(=O)(O)O)cc1)C(=O)O; Caffeoyl = O=C(/C=C/c1ccc(O)c(O)c1)*

Tests used:
Experiment in all cases: biochemical
Assay type in all cases: binding
FRK = biological target: T1, FRK (Homo sapiens, UniProt P42685); settings: for remaining activity at 10 µM: primary screen
T1 construct: the DNA-tagged SH2 domain concentrations used in this study were <0.1 nM; made in house; host or cells: HEK293 (transient transfection; unpurified extract)
T1 sequence (P42685 116-208 limits assumed): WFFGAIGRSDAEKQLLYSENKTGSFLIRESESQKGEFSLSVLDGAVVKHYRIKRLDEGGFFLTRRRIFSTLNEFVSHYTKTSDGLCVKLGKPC

PIK3R3(SH2dom.N-term.) = biological target: T2, PIK3R3(SH2dom.N-term.) (Homo sapiens, UniProt Q92569); settings: for remaining activity at 10 µM: read-out: percent of DMSO vehicle control
T2 construct: SH2dom.N-term. denotes SH2 domain closest to N-terminus of protein; made in house; host or cells: HEK293 (transient transfection, unpurified extract)

RASA1(SH2dom.N-term.) = biological target: T3, RASA1(SH2dom.N-term.) (Homo sapiens, UniProt P20936); settings: for remaining activity at 10 µM: read-out: percent of DMSO vehicle control
T3 construct: SH2dom.N-term. denotes SH2 domain closest to N-terminus of protein; made in house; host or cells: HEK293 (transient transfection), unpurified extract
T3 sequence (P20936 181-272 limits assumed): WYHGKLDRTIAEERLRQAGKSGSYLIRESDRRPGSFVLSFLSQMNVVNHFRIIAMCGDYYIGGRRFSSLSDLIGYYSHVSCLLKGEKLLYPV

SH3BP2 = biological target: T4, SH3BP2 (Homo sapiens, UniProt P78314); settings: for remaining activity at 10 µM: read-out: percent of DMSO vehicle control
T4 construct: made in house; host or cells: HEK293 (transient transfection), unpurified extract
T4 sequence (P78314 1-561): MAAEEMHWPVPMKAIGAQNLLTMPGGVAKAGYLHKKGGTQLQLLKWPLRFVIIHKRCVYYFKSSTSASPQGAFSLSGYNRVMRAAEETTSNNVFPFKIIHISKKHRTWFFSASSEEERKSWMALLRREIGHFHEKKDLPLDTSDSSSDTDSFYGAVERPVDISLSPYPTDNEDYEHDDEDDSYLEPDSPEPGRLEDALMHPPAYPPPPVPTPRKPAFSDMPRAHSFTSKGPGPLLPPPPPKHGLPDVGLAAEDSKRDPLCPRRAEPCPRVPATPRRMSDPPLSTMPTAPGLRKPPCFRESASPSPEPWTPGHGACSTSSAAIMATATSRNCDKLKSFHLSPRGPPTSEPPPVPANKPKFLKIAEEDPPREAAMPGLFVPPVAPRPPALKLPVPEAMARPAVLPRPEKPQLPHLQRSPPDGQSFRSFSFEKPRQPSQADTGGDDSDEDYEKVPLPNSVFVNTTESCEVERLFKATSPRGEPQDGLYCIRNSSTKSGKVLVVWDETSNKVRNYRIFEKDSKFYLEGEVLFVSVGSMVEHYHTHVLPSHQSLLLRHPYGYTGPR

FYN = biological target: T5, FYN (Homo sapiens, UniProt P06241); settings: for remaining activity at 10 µM: primary screen
T5 construct: the DNA-tagged SH2 domain concentrations used in this study were <0.1 nM; made in house; host or cells: HEK293 (transient transfection; unpurified extract)
T5 sequence (P06241 149-246 limits assumed): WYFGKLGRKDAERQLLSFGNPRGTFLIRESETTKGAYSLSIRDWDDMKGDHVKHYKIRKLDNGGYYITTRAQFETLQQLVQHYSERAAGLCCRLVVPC

STAP2 = biological target: T6, STAP2 (Homo sapiens, UniProt Q9UGK3); settings: for remaining activity at 10 µM: primary screen
T6 construct: made in house; host or cells: HEK293 (transient transfection), unpurified extract
T6 sequence (Q9UGK3 1-403): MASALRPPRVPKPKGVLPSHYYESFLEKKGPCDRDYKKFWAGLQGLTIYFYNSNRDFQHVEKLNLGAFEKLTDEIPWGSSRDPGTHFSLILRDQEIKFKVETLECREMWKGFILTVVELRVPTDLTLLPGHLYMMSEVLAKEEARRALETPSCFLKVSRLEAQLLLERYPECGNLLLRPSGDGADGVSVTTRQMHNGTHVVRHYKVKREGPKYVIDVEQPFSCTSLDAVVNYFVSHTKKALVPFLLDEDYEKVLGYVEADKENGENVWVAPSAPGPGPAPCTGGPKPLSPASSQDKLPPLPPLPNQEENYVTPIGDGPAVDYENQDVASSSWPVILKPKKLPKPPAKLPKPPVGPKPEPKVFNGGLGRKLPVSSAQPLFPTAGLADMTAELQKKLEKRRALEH

FER = biological target: T7, FER (Homo sapiens, UniProt P16591); settings: for remaining activity at 10 µM: primary screen
T7 construct: the DNA-tagged SH2 domain concentrations used in this study were <0.1 nM; made in house; host or cells: HEK293 (transient transfection; unpurified extract)
T7 sequence (P16591 460-550 limits assumed): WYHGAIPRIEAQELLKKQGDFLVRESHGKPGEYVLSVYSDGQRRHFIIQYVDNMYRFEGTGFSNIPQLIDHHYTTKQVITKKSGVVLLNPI

PTPN6(SH2dom.N-term.) = biological target: T8, PTPN6(SH2dom.N-term.) (Homo sapiens, UniProt P29350); settings: for remaining activity at 10 µM: read-out: percent of DMSO vehicle control
T8 construct: SH2dom.N-term. denotes SH2 domain closest to N-terminus of protein; made in house; host or cells: HEK293 (transient transfection, unpurified extract)
T8 sequence (P29350 4-100 limits assumed): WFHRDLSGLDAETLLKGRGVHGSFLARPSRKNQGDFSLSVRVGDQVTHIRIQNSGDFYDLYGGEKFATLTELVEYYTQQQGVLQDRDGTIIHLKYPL

ITK = biological target: T9, ITK (Homo sapiens, UniProt Q08881); settings: for percent of DMSO vehicle control: primary screen, 10 μM
T9 construct: the DNA-tagged SH2 domain concentrations used in this study were <0.1 nM; made in house; host or cells: HEK293 (transient transfection, unpurified extract)
T9 sequence (Q08881 239-338 limits assumed): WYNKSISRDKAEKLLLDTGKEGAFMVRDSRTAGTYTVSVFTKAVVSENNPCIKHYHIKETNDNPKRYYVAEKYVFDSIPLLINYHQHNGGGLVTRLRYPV

SHC2 = biological target: T10, SHC2 (Homo sapiens, UniProt P98077); settings: for remaining activity at 10 µM: read-out: percent of DMSO vehicle control
T10 construct: made in house; host or cells: HEK293 (transient transfection), unpurified extract
T10 sequence (P98077 1-582): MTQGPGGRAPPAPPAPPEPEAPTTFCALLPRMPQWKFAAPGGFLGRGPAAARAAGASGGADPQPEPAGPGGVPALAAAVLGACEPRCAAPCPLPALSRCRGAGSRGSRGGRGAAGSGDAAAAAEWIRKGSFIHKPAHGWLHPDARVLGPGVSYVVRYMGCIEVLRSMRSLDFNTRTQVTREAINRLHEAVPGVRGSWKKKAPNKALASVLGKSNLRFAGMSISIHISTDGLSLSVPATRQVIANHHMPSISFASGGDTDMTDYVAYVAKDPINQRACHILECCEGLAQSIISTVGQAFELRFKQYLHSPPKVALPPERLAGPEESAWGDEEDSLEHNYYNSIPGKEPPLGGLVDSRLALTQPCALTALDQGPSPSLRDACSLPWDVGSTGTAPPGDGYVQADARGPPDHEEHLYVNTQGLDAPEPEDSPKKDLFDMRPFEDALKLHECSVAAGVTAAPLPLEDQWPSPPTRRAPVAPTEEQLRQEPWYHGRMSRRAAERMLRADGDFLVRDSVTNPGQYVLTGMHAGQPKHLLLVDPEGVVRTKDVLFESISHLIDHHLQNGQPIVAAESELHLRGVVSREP

DAPP1 = biological target: T11, DAPP1 (Homo sapiens, UniProt Q9UN19); settings: read-out: percent of DMSO vehicle control; for remaining activity at 10 µM: primary screen
T11 construct: the DNA-tagged SH2 domain concentrations used in this study were <0.1 nM; made in house; host or cells: HEK293 (transient transfection; unpurified extract)
T11 sequence (Q9UN19 35-129 limits assumed): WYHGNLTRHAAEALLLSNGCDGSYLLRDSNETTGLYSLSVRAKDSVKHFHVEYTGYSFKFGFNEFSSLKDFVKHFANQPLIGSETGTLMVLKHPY

PIK3R2(SH2dom.C-term.) = biological target: T12, PIK3R2(SH2dom.C-term.) (Homo sapiens, UniProt O00459); settings: for remaining activity at 10 µM: read-out: percent of DMSO vehicle control
T12 construct: SH2dom.C-term. denotes SH2 domain closest to C-terminus of protein; made in house; host or cells: HEK293 (transient transfection, unpurified extract)
T12 sequence (O00459 622-716 limits assumed): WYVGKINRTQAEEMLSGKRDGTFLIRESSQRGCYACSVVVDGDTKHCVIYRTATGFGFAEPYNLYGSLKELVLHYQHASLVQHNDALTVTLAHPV

[1] = read-out: percent of DMSO vehicle control

SMILES | remaining activity at 10 µM (FRK; [1]) [%] | remaining activity at 10 µM (PIK3R3(SH2dom.N-term.); primary screen, 10 μM) [%] | remaining activity at 10 µM (RASA1(SH2dom.N-term.); primary screen, 10 μM) [%] | remaining activity at 10 µM (SH3BP2; primary screen, 10 μM) [%] | remaining activity at 10 µM (FYN; [1]) [%] | remaining activity at 10 µM (STAP2; [1]) [%] | remaining activity at 10 µM (FER; [1]) [%] | remaining activity at 10 µM (PTPN6(SH2dom.N-term.); primary screen, 10 μM) [%] | percent of DMSO vehicle control (ITK) [%] | remaining activity at 10 µM (SHC2; primary screen, 10 μM) [%] | remaining activity at 10 µM (DAPP1) [%] | KD (PIK3R2(SH2dom.C-term.); dose-response) | remaining activity at 10 µM (PIK3R2(SH2dom.C-term.); primary screen, 10 μM) [%] | Kd (FER; dose-response, read-out: KD) [nM] | further results
O=C(CCl)Nc1cccc(CNC(=O)[C@H](Cc2ccc(OP(=O)(O)O)cc2)NC(=O)Cc2ccc(F)cc2)c1 [MN551] | 69 ± 8.3 | 97.7 | 94.2 ± 3 | 109 | 83.2 ± 0.4 | 143 | 1.1 ± 0.2 | 102 | 51.4±1.1 | 82.9 ± 1.7 | 81.2 | No Hit | 30.3 |  | 
CC[C@H](C)[C@H](NC(=O)[C@H](CCC(=O)O)NC(=O)[C@H](CCC(=O)O)NC(=O)[C@H](Cc1ccc(OP(=O)(O)O)cc1)NC(=O)/C=C/c1ccc(O)c(O)c1)C(=O)N[C@@H](CCC(=O)O)C(=O)O [Caffeic acid-pYEEIE] (Caffeoyl-[pY]EEIE-OH) |  |  |  |  |  |  |  |  | 3.1±0.3 |  |  | No Hit |  |  | Kd (FRK): 2.2 ± 0.47 nM; percent of DMSO vehicle control at 10 µM (FRK; [1]): 0.1 ± 0.1%; Kd (PIK3R3(SH2dom.N-term.)): 150 ± 20 nM; remaining activity at 10 µM (PIK3R3(SH2dom.N-term.)): 0.6%; Kd (RASA1(SH2dom.N-term.)): 230 ± 410 nM; remaining activity at 10 µM (RASA1(SH2dom.N-term.)): 0.1%; Kd (SH3BP2): 1020 ± 600 nM; remaining activity at 10 µM (SH3BP2): 0.9 ± 0.3%; Kd (FYN): 0.53 nM; percent of DMSO vehicle control at 10 µM (FYN; [1]): 0%; Kd (STAP2): 23200 nM; percent of DMSO vehicle control at 10 µM (STAP2; [1]): 58.7 ± 7.4%; Kd (FER): 62 ± 86 nM; percent of DMSO vehicle control at 10 µM (FER; [1]): 0.8 ± 0.8%; remaining activity at 10 µM (PTPN6(SH2dom.N-term.)): 118 ± 19.5%; Kd (ITK): 570 ± 630 nM; Kd (SHC2): 580 ± 330 nM; remaining activity at 10 µM (SHC2): 0.3 ± 0.1%; percent of DMSO vehicle control at 10 µM (DAPP1): 39.2 ± 3.2%; remaining activity at 10 µM (PIK3R2(SH2dom.C-term.)): 0.3 ± 0.9%
C/C(=C\C(=O)N[C@H](C(=O)N1CCC[C@H]1C(=O)N(c1ccccc1)c1ccc(I)cc1)C(C)(C)C)c1ccc(OP(=O)(O)O)cc1 [STAT6-IN-1] | 38.3 ± 5.9 | 48.3 ± 1.7 | 50.2 ± 0.4 | 56.5 ± 0.3 | 48.2 ± 2.1 | 58.4 ± 51.4 | 8.5 ± 0.1 | 69.7 | 0.0±0.0 | 47.3 ± 3.3 | 41.1 ± 13.9 |  | 0.2 ± 0.1 | 1400 ± 71 | Kd (STAP2; dose-response, read-out: KD): 16300 nM; Kd (ITK; dose-response, read-out: KD): 10300 nM; Kd (PIK3R2(SH2dom.C-term.); dose-response, read-out: KD): 1000 ± 78 nM
O=C(COc1ccc2cc(C(=O)Nc3ccccc3)ccc2c1)NCc1ccc(OP(=O)(O)O)c(OP(=O)(O)O)c1 [Stafib-1] | 65.3 ± 42.8 | 105 | 71.3 ± 8.8 | 86 ± 3.2 | 92.1 ± 35.5 | 78.7 ± 36.1 | 10.8 | 27.8 ± 4.2 | 0±61.0 | 83.4 ± 24.4 | 100 |  | 84.2 ± 34.7 | 1900 | Kd (PTPN6(SH2dom.N-term.); dose-response, read-out: KD): 13000 nM; KD (ITK; dose-response): No Hit
